Laboratory results from patent US9315505B2, “Heterocyclic compounds and uses thereof” (INTELLIKINE LLC, priority 2009, dated 2016).

Target: T1, PI3K α (Homo sapiens, UniProt P42336)
T1 construct: purchased Upstate
Test: In vitro IC50, PI3K α (p110α/p85α inhibition assay)
Assay type: biochemical
Conditions: in vitro kinase assay; read-out: IC50(nM) PI3K α
Procedure: (§1) IC50 values are measured using either a standard TLC assay for lipid kinase activity (described below) or a high-throughput membrane capture assay. Kinase reactions are performed by preparing a reaction mixture containing kinase, inhibitor (2% DMSO final concentration), buffer (25 mM HEPES, pH 7.4, 10 mM MgCl2), and freshly sonicated phosphatidylinositol (100 μg/ml). Reactions are initiated by the addition of ATP containing 10 μCi of γ-32P-ATP to a final concentration 10 or 100 μM and allowed to proceed for 5 minutes at room temperature. For TLC analysis, reactions are then terminated by the addition of 105 μl 1N HCl followed by 160 μl CHCl3:MeOH (1:1). The biphasic mixture is vortexed, briefly centrifuged, and the organic phase is transferred to a new tube using a gel loading pipette tip precoated with CHCl3. This extract is spotted on TLC plates and developed for 3-4 hours in a 65:35 solution of n-propanol:1M acetic acid. The TLC plates are then dried, exposed to a phosphorimager screen (Storm, Amersham), and quantitated.
(§2) Other commercial kits or systems for assaying PI3-K activities are available. The commercially available kits or systems can be used to screen for inhibitors and/or agonists of PI3-Ks including but not limited to PI 3-Kinase α, β, δ, and γ. An exemplary system is PI 3-Kinase (human) HTRF™ Assay from Upstate. […] Briefly, the assay is a time resolved FRET assay that indirectly measures PIP3 product formed by the activity of a PI3-K. The kinase reaction is performed in a microtitre plate (e.g., a 384 well microtitre plate). The total reaction volume is approximately 20 ul per well. In the first step, each well receives 2 ul of test compound in 20% dimethylsulphoxide resulting in a 2% DMSO final concentration. Next, approximately 14.5 ul of a kinase/PIP2 mixture (diluted in 1× reaction buffer) is added per well for a final concentration of 0.25-0.3 ug/ml kinase and 10 uM PIP2. The plate is sealed and incubated for 15 minutes at room temperature. To start the reaction, 3.5 ul of ATP (diluted in 1× reaction buffer) is added per well for a final concentration of 10 uM ATP. The plate is sealed and incubated for 1 hour at room temperature. The reaction is stopped by adding 5 ul of Stop Solution per well and then 5 ul of Detection Mix is added per well. The plate is sealed, incubated for 1 hour at room temperature, and then read on an appropriate plate reader. Data is analyzed and IC50s are generated using GraphPad Prism 5.

T1 sequence (P42336 whole entry): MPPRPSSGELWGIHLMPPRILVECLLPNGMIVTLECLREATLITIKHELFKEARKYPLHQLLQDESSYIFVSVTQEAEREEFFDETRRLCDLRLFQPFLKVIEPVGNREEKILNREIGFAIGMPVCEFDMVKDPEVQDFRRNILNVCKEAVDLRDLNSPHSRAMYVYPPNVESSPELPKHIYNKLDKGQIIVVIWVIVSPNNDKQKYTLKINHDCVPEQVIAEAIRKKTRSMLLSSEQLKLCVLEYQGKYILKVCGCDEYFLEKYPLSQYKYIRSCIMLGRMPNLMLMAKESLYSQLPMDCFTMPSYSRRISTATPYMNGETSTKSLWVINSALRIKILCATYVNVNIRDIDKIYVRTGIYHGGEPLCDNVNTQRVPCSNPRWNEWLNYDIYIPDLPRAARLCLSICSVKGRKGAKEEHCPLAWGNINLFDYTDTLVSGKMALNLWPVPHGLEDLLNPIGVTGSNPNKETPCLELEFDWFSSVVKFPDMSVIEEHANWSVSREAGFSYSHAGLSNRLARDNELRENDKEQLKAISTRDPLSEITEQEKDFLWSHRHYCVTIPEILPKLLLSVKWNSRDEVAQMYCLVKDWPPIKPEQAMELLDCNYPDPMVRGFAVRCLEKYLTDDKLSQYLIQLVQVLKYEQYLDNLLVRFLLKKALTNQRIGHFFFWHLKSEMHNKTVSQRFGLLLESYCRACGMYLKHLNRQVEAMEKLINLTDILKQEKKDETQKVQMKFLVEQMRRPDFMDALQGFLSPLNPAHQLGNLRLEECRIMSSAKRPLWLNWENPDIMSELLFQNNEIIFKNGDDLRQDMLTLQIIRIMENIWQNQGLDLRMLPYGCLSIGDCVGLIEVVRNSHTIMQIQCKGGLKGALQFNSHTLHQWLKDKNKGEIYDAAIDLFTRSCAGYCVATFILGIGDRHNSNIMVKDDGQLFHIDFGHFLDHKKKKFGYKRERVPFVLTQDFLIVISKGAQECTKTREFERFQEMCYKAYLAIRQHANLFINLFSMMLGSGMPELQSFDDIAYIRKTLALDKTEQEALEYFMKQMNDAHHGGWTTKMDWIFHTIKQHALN
T1 sequence (P27986 whole entry partner): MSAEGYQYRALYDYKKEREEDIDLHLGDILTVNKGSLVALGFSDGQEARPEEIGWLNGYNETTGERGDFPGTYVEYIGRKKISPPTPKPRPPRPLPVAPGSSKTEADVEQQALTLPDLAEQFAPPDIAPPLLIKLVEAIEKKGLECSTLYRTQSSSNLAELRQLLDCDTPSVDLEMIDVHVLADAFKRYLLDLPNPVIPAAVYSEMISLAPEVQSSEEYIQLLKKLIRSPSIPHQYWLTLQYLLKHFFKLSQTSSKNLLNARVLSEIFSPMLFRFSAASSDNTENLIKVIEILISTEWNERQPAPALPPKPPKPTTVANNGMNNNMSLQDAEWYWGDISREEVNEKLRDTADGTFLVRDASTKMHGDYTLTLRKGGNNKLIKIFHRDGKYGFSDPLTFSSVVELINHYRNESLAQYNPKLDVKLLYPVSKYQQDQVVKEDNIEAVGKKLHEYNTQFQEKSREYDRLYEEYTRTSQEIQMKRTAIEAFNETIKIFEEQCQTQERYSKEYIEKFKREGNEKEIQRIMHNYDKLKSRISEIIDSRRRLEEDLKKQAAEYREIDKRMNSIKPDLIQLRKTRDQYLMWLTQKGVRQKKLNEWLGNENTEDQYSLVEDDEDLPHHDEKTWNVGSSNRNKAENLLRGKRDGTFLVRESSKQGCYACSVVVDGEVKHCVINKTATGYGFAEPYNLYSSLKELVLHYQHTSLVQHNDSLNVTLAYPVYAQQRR

Row | SMILES | IC50
1 | Cc1cccc2cc(C(C)Nc3ncnc4[nH]cnc34)nc(CCN3CCN(C)CC3)c12 (stereo not shown) [Compound 20] | > 10000 nM
2 | CC(Nc1ncnc2[nH]cnc12)c1cc2ccccc2c(OC2CCN(C(C)C)CC2)n1 (stereo not shown) [Compound 35] | > 10000 nM
3 | CC(Nc1ncnc2[nH]cnc12)c1cc2cccc(Cl)c2c(OC2CCN(S(C)(=O)=O)CC2)n1 (stereo not shown) [Compound 54] | > 10000 nM
4 | CN1CCC(Oc2nc(Cn3nc(-c4cn[nH]c4)c4c(N)ncnc43)cc3cccc(Cl)c23)CC1 [Compound 55] | > 10000 nM
5 | CCN1CCC(Oc2nc(Cn3nc(-c4cn[nH]c4)c4c(N)ncnc43)cc3cccc(Cl)c23)CC1 [Compound 56] | > 10000 nM
6 | CC(C)N1CCC(Oc2nc(Cn3nc(-c4cn[nH]c4)c4c(N)ncnc43)cc3cccc(Cl)c23)CC1 [Compound 57] | > 10000 nM

Further lines, results first:

Row | IC50 | SMILES
7 | < 1000 nM | Cc1cccc2cc(Cn3nc(-c4ccc5oc(N)nc5c4)c4c(N)ncnc43)nc(CCN3CCN(C)CC3)c12 [Compound 25]
8 | < 1000 nM | Cc1cccc2cc(Cn3nc(-c4ccc5oc(N)nc5c4)c4c(N)ncnc43)nc(N3CCCC3)c12 [Compound 26]
9 | < 100 nM | Cc1cccc2cc(Cn3nc(-c4ccc5nc(N)sc5c4)c4c(N)ncnc43)nc(OC(C)C)c12 [Compound 31]
10 | < 10000 nM | Cc1cccc2cc(C(C)Nc3ncnc4[nH]cnc34)nc(CCN3CCN(S(C)(=O)=O)CC3)c12 (stereo not shown) [Compound 50]

Target: T2, PI3K δ (Homo sapiens, UniProt O00329)
T2 construct: purchased Upstate
Test: In vitro IC50, PI3K δ (p110δ/p85α inhibition assay)
Assay type: biochemical
Conditions: in vitro kinase assay; read-out: IC50(nM) PI3K δ
Procedure: as §1, §2

T2 sequence (O00329 whole entry): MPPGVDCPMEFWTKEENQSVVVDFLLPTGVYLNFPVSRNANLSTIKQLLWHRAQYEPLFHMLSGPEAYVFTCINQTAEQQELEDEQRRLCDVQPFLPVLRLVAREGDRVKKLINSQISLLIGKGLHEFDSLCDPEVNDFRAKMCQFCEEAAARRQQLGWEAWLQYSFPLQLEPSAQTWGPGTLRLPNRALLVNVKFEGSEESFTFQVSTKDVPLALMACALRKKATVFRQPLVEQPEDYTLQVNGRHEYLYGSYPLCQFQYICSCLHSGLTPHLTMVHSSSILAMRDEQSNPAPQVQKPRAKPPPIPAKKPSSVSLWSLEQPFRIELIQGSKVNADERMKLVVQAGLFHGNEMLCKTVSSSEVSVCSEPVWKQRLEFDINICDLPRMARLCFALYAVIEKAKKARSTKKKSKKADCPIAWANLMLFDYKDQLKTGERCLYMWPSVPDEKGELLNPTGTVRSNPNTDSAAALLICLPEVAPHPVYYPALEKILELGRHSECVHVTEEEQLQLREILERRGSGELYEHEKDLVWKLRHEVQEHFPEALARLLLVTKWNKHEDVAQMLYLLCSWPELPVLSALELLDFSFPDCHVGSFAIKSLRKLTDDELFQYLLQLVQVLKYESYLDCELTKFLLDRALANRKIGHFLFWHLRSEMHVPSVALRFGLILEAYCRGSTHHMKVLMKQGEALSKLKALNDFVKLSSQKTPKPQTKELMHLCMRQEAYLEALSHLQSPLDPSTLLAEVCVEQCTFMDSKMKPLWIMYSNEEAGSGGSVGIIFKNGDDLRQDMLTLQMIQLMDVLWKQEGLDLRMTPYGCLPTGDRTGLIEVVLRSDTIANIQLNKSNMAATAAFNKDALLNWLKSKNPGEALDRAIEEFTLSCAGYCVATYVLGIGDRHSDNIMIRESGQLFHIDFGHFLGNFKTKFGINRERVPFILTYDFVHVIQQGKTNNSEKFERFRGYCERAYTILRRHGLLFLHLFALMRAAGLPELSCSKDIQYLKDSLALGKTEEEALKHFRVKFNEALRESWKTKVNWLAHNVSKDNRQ
T2 sequence (P27986 whole entry partner): as the sequence (P27986 whole entry partner) above

Row | SMILES | IC50
11 | Cc1cccc2cc(C(C)Nc3ncnc4[nH]cnc34)nc(CCN3CCN(C)CC3)c12 (stereo not shown) [Compound 20] | < 100 nM
12 | CC(Nc1ncnc2[nH]cnc12)c1cc2ccccc2c(OC2CCN(C(C)C)CC2)n1 (stereo not shown) [Compound 35] | < 1000 nM
13 | CC(Nc1ncnc2[nH]cnc12)c1cc2cccc(Cl)c2c(OC2CCN(S(C)(=O)=O)CC2)n1 (stereo not shown) [Compound 54] | < 1000 nM
14 | CN1CCC(Oc2nc(Cn3nc(-c4cn[nH]c4)c4c(N)ncnc43)cc3cccc(Cl)c23)CC1 [Compound 55] | < 100 nM
15 | CCN1CCC(Oc2nc(Cn3nc(-c4cn[nH]c4)c4c(N)ncnc43)cc3cccc(Cl)c23)CC1 [Compound 56] | < 1000 nM
16 | CC(C)N1CCC(Oc2nc(Cn3nc(-c4cn[nH]c4)c4c(N)ncnc43)cc3cccc(Cl)c23)CC1 [Compound 57] | < 100 nM

Second part, the compound after the results:

Row | IC50 | SMILES
17 | < 100 nM | Cc1cccc2cc(Cn3nc(-c4ccc5oc(N)nc5c4)c4c(N)ncnc43)nc(CCN3CCN(C)CC3)c12 [Compound 25]
18 | < 100 nM | Cc1cccc2cc(Cn3nc(-c4ccc5oc(N)nc5c4)c4c(N)ncnc43)nc(N3CCCC3)c12 [Compound 26]
19 | < 100 nM | Cc1cccc2cc(Cn3nc(-c4ccc5nc(N)sc5c4)c4c(N)ncnc43)nc(OC(C)C)c12 [Compound 31]
20 | < 100 nM | Cc1cccc2cc(C(C)Nc3ncnc4[nH]cnc34)nc(CCN3CCN(S(C)(=O)=O)CC3)c12 (stereo not shown) [Compound 50]

Test system: Balb/c splenic B cells
Test: B cell activation and proliferation assay (Alamar Blue)
Assay type: cell-based
Conditions: Mus musculus, read-out: B cell proliferation EC50
Procedure: The ability of one or more subject compounds to inhibit B cell activation and proliferation is determined according to standard procedures known in the art. For example, an in vitro cellular proliferation assay is established that measures the metabolic activity of live cells. The assay is performed in a 96 well microtiter plate using Alamar Blue reduction. Balb/c splenic B cells are purified over a Ficoll-Paque™ PLUS gradient followed by magnetic cell separation using a MACS B cell Isolation Kit (Miletenyi). Cells are plated in 90 ul at 50,000 cells/well in B Cell Media (RPMI+10% FBS+Penn/Strep+50 uM bME+5 mM HEPES). A compound disclosed herein is diluted in B Cell Media and added in a 10 ul volume. Plates are incubated for 30 min at 37 C and 5% CO2 (0.2% DMSO final concentration). A 50 ul B cell stimulation cocktail is then added containing either 10 ug/ml LPS or 5 ug/ml F(ab′)2 Donkey anti-mouse IgM plus 2 ng/ml recombinant mouse IL4 in B Cell Media. Plates are incubated for 72 hours at 37° C. and 5% CO2. A volume of 15 uL of Alamar Blue reagent is added to each well and plates are incubated for 5 hours at 37 C and 5% CO2. Alamar Blue fluoresce is read at 560Ex/590Em, and IC50 or EC50 values are calculated using GraphPad Prism 5.

Row | SMILES | EC50
21 | Cc1cccc2cc(C(C)Nc3ncnc4[nH]cnc34)nc(CCN3CCN(C)CC3)c12 (stereo not shown) [Compound 20] | < 100 nM
22 | Cc1cccc2cc(Cn3nc(-c4ccc5oc(N)nc5c4)c4c(N)ncnc43)nc(CCN3CCN(C)CC3)c12 [Compound 25] | < 100 nM
23 | Cc1cccc2cc(Cn3nc(-c4ccc5oc(N)nc5c4)c4c(N)ncnc43)nc(N3CCCC3)c12 [Compound 26] | < 1000 nM
24 | Cc1cccc2cc(Cn3nc(-c4ccc5nc(N)sc5c4)c4c(N)ncnc43)nc(OC(C)C)c12 [Compound 31] | < 1000 nM
25 | CC(Nc1ncnc2[nH]cnc12)c1cc2ccccc2c(OC2CCN(C(C)C)CC2)n1 (stereo not shown) [Compound 35] | < 100 nM
26 | Cc1cccc2cc(C(C)Nc3ncnc4[nH]cnc34)nc(CCN3CCN(S(C)(=O)=O)CC3)c12 (stereo not shown) [Compound 50] | < 100 nM
27 | CC(Nc1ncnc2[nH]cnc12)c1cc2cccc(Cl)c2c(OC2CCN(S(C)(=O)=O)CC2)n1 (stereo not shown) [Compound 54] | < 1000 nM
28 | CN1CCC(Oc2nc(Cn3nc(-c4cn[nH]c4)c4c(N)ncnc43)cc3cccc(Cl)c23)CC1 [Compound 55] | < 100 nM
29 | CCN1CCC(Oc2nc(Cn3nc(-c4cn[nH]c4)c4c(N)ncnc43)cc3cccc(Cl)c23)CC1 [Compound 56] | < 100 nM
30 | CC(C)N1CCC(Oc2nc(Cn3nc(-c4cn[nH]c4)c4c(N)ncnc43)cc3cccc(Cl)c23)CC1 [Compound 57] | < 100 nM

Target: T3, PI3K γ (Homo sapiens, UniProt P48736)
T3 construct: purchased Sigma
Test: In vitro IC50, PI3K γ (p110γ inhibition assay)
Assay type: biochemical
Conditions: in vitro kinase assay
Procedure: as §1, with “Class I PI3-Ks can be either purchased (p110α/p85α, p110β/p85α, p110δ/p85α from Upstate, and p110γ from Sigma) or expressed as previously described (Knight et al., 2004). IC50” for “IC50”, “quantitated. For each compound, kinase activity is measured at 10-12 inhibitor concentrations representing two-fold dilutions from the highest concentration tested (typically, 200 μM).” for “quantitated.”
as §2

T3 sequence (P48736 whole entry): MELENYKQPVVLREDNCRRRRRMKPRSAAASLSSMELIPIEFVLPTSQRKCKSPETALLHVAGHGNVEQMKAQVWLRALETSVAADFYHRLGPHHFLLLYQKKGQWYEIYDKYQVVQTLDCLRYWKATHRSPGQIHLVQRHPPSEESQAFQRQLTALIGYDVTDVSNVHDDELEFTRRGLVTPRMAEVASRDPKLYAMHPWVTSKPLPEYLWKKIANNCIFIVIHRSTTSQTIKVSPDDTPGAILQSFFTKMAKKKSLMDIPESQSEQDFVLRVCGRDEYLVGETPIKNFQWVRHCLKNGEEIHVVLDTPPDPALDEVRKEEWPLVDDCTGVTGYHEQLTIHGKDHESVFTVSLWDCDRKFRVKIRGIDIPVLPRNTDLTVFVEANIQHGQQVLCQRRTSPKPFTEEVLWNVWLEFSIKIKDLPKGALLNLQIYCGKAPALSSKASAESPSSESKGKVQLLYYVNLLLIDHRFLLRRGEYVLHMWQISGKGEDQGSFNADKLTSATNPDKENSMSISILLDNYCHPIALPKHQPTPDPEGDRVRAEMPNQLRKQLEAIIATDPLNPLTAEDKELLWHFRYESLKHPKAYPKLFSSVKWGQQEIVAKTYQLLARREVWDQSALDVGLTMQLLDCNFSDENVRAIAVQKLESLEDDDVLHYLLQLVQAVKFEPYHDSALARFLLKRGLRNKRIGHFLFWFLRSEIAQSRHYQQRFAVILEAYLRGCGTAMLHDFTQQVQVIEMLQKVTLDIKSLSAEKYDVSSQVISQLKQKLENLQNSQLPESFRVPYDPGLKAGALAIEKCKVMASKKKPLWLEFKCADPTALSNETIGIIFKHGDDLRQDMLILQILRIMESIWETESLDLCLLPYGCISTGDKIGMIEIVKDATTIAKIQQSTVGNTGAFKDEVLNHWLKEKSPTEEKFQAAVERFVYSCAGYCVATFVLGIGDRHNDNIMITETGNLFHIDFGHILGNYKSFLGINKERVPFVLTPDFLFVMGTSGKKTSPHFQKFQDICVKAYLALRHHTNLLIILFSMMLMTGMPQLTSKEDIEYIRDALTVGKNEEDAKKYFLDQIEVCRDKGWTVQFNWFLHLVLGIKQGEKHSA

Row | SMILES | IC50
31 | Cc1cccc2cc(C(C)Nc3ncnc4[nH]cnc34)nc(CCN3CCN(C)CC3)c12 (stereo not shown) [Compound 20] | > 10000 nM
32 | CC(Nc1ncnc2[nH]cnc12)c1cc2ccccc2c(OC2CCN(C(C)C)CC2)n1 (stereo not shown) [Compound 35] | > 10000 nM
33 | CC(Nc1ncnc2[nH]cnc12)c1cc2cccc(Cl)c2c(OC2CCN(S(C)(=O)=O)CC2)n1 (stereo not shown) [Compound 54] | > 10000 nM
34 | CN1CCC(Oc2nc(Cn3nc(-c4cn[nH]c4)c4c(N)ncnc43)cc3cccc(Cl)c23)CC1 [Compound 55] | > 10000 nM
35 | CCN1CCC(Oc2nc(Cn3nc(-c4cn[nH]c4)c4c(N)ncnc43)cc3cccc(Cl)c23)CC1 [Compound 56] | > 10000 nM
36 | CC(C)N1CCC(Oc2nc(Cn3nc(-c4cn[nH]c4)c4c(N)ncnc43)cc3cccc(Cl)c23)CC1 [Compound 57] | > 10000 nM

Now from value to compound:

Row | IC50 | SMILES
37 | < 1000 nM | Cc1cccc2cc(Cn3nc(-c4ccc5oc(N)nc5c4)c4c(N)ncnc43)nc(CCN3CCN(C)CC3)c12 [Compound 25]
38 | < 100 nM | Cc1cccc2cc(Cn3nc(-c4ccc5oc(N)nc5c4)c4c(N)ncnc43)nc(N3CCCC3)c12 [Compound 26]
39 | < 100 nM | Cc1cccc2cc(Cn3nc(-c4ccc5nc(N)sc5c4)c4c(N)ncnc43)nc(OC(C)C)c12 [Compound 31]
40 | < 10000 nM | Cc1cccc2cc(C(C)Nc3ncnc4[nH]cnc34)nc(CCN3CCN(S(C)(=O)=O)CC3)c12 (stereo not shown) [Compound 50]
